# Tests used:
# [1] = test system: NCI-H460; conditions: NCI-H460 (Non-Small cell lung cancer); 48 h
# [2] = test system: HCC-2998; conditions: HCC-2998 (Colon); 48 h
# [3] = molecular target: T1, RARα (Homo sapiens, UniProt P10276); assay: BRET assay of agonist-dependent coactivator recruitment in transfected HEK293 cells; format: cell-based
# T1 sequence (P10276 1-462): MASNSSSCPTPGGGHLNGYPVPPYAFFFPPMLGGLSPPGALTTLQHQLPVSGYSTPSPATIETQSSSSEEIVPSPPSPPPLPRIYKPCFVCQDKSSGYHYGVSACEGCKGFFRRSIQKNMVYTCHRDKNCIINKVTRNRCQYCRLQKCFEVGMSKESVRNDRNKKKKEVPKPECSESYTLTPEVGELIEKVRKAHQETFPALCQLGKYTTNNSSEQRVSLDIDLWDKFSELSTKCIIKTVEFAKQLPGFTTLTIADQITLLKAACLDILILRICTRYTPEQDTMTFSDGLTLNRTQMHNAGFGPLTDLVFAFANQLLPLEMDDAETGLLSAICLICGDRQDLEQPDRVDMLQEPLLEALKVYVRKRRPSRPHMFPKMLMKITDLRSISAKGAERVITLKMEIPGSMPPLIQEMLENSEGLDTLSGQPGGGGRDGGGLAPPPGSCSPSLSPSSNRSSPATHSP
# Method: Hybrid 3 was prepared by treatment of the methyl ester of TTNN with excess hydroxylamine under alkaline conditions. The effects of hybrid 3 on RAR were initially assessed using a bioluminescence resonance energy transfer (BRET) assay. The BRET assay monitors agonist-dependent recruitment of coactivators to RARs in transfected HEK293 cells, chosen because of their high degree of transfectability. Energy transfer between luciferase (fused to RARα) and eGFP (fused to the LXXLL coactivator motif) occurs only when these moieties are juxtaposed by the RAR-LXXLL interaction, and can be detected by the emission of green fluorescence.
# Cell transfection and BRET assays: HEK293 cells were grown to confluence, trypsinized and plated at a density of 500 k cells per well (12-well plates) in DMEM supplemented with 10% charcoal treated FBS (FBS-T). The following day, cells were transfected with PEI using 0.1 μg of RAR-RLuc vector and 1 μg of LXXLL-eGFP vector. 48 hours post-transfection, cells were treated with retinoids for 2 hours before taking BRET measurements as described previously.
# [4] = test system: SR; assay: cells; conditions: Homo sapiens, 48 h
# [5] = test system: RPMI-8226; assay: cells; conditions: Homo sapiens, RPMI-8226, 48 h
# [6] = test system: SK-OV-3; assay: cells; conditions: Homo sapiens, SK-OV-3, 48 h
# [7] = test system: A549/ATCC; assay: cells; conditions: Homo sapiens, A549, 48 h
# [8] = test system: EKVX; assay: cells; conditions: Homo sapiens, 48 h
# [9] = test system: SW-620; assay: cells; conditions: Homo sapiens, SW-620, 48 h
# [10] = test system: acetylated histone H4 and p53 in MDA-MB-231 cells; assay: Western blotting of acetylated histone H4 and p53; conditions: 10 μM, 18-24 h time course
# Method: The potential of 3 to act as an HDACi and cause deacetylation of a synthetic substrate or hyperacetylation of HDACs target proteins was subsequently assessed. […] Intracellular HDACi activity was assessed by measuring levels of acetylated histone H4 and tumor suppressor protein p53 in MDA-MB-231 cells by Western blotting.
# Western Blotting: MDA-MB-231 cells were plated in DMEM 5% FBS-T at 600 k cells per well in 6-well plates. […] Laemmli buffer at various time points. Protein concentration of the extracts was analyzed by BioRad DC protein assay. 20 μg of proteins per condition were loaded on an SDS-PA gel and transferred to a nitrocellulose membrane for blotting. Blotting was done using ABCAM primary antibodies EP356 (anti-p53) T3526 (anti-Tubulin) and AB1761 (anti-acH4).
# [11] = test system: MDA-MB-468; conditions: MDA-MB-468 (Breast); 48 h
# [12] = test system: ACHN; conditions: ACHN (Renal); 48 h
# [13] = test system: CAKI-1; conditions: CAKI-1 (Renal); 48 h
# [14] = test system: SF-268; conditions: SF-268 (CNS); 48 h
# [15] = test system: normal human mammary epithelial cells (HMEC); assay: Cell growth measurement; format: cell-based
# [16] = test system: OVCAR-5; conditions: 48 h
# [17] = test system: OVCAR-3; assay: cells; conditions: Homo sapiens, OVCAR-3, 48 h
# [18] = test system: HCT-15; assay: cells; conditions: Homo sapiens, HCT-15, 48 h
# [19] = test system: SF-539; conditions: SF-539 (CNS); 48 h
# [20] = test system: MDA-MB-468; assay: cells; conditions: Homo sapiens, MDA-MB-468, 48 h
# [21] = test system: T-47D; conditions: T-47D (Breast); 48 h
# [22] = test system: NCI-H226; assay: cells; conditions: Homo sapiens, NCI-H226, 48 h
# [23] = test system: OVCAR-8; assay: cells; conditions: Homo sapiens, OVCAR-8, 48 h
# [24] = test system: UACC-62; assay: cells; conditions: Homo sapiens, UACC-62, 48 h
# [25] = test system: SNB-19; assay: cells; conditions: Homo sapiens, SNB-19, 48 h
# [26] = test system: SNB-75; conditions: SNB-75 (CNS); 48 h
# [27] = test system: NCI-H460; assay: cells; conditions: Homo sapiens, NCI-H460, 48 h
structure (smiles),measurement,setting,value
CC1(C)CCC(C)(C)c2cc(-c3ccc4cc(C(=O)NO)ccc4c3)ccc21 [hybrid 3],TGI,[1],1070 nM
same,TGI,[2],2510 nM
same,RARα agonism (BRET signal),"[3]; 1 μM, 2 hours treatment",agonists of RARα
same,EC50,"[3]; FIG. 2b, read-out: IC50 in inducing RARα (BRET dose-response)",1020 nM
same,GI50,[4],335 nM
same,CC50,[4]; read-out: LC50,7640 nM
same,GI50,[5],689 nM
same,CC50,[5]; read-out: LC50,> 100000 nM
same,GI50,[6],1540 nM
same,CC50,[6]; read-out: LC50,34800 nM
same,GI50,[7],473 nM
same,CC50,[7]; read-out: LC50,7800 nM
same,GI50,[8],686 nM
same,CC50,[8]; read-out: LC50,18400 nM
same,GI50,[9],626 nM
same,CC50,[9]; read-out: LC50,4850 nM
same,hyperacetylation of histone H4 and p53,[10],clear hyperacetylation
same,TGI,[11],2750 nM
same,TGI,[12],1490 nM
same,TGI,[13],1030 nM
same,TGI,[14],1850 nM
same,effect on growth of normal cells,[15],only minimal effects
same,TGI,[16],19500 nM
same,GI50,[17],603 nM
same,CC50,[17]; read-out: LC50,4480 nM
same,GI50,[18],381 nM
same,CC50,[18]; read-out: LC50,9380 nM
same,TGI,[19],7260 nM
same,GI50,[20],1180 nM
same,CC50,[20]; read-out: LC50,6390 nM
same,TGI,[21],4030 nM
same,GI50,[22],1220 nM
same,CC50,[22]; read-out: LC50,18800 nM
same,GI50,[23],459 nM
same,CC50,[23]; read-out: LC50,5120 nM
same,GI50,[24],512 nM
same,CC50,[24]; read-out: LC50,5170 nM
same,GI50,[25],1090 nM
same,CC50,[25]; read-out: LC50,5090 nM
same,TGI,[26],6100 nM
same,GI50,[27],340 nM
same,CC50,[27]; read-out: LC50,4040 nM
